{
  "source": "patent US20260091086A1",
  "about": "“POLYPEPTIDE COMBINATIONS AND USES THEREOF” (MEDIMMUNE LIMITED, priority 2024, published 2026)",
  "key": {"AMY3R/CTR [1]": {"test_system": "AMY3R/CTR", "assay": "Relative potency ratio, cAMP accumulation assays with 0.1% BSA, rat receptors", "format": "cell-based", "conditions": "0.1% bovine serum albumin, n ≥ 5; potencies relative to pramlintide 100%", "experimental": "Target engagement was estimated in the following way for each compound. The maximum concentration (Cmax) after subcutaneous injection was measured in separate rat pharmacokinetic studies and was dose-adjusted to the tested dose levels when appropriate, assuming dose linearity. Plasma protein binding was determined in vitro using 3B Pharmaceutical's Escalate Equilibrium Shift Assay or an in-house Surface Plasmon Resonance (SPR) assay. Peptide in vitro potency was determined via HTRF CAMP accumulation assay using HEK293 cells recombinantly expressing the rat calcitonin receptor or rat amylin receptor (calcitonin receptor plus RAMP3) in saline buffer containing 0.1% bovine serum albumin. The in vitro potencies (IC50s) for amylin and calcitonin were adjusted to unbound values by taking into account the albumin concentration in the assay and fraction unbound data, according to an established method (Wan H and Bergström F (2007), High Throughput Screening of Drug-Protein Binding in Drug Discovery, Journal of Liquid Chromatography & Related Technologies, 30:5, 681-700; doi: 10.1080/10826070701190989). Finally, the target engagement was calculated as the unbound Cmax divided by the unbound IC50, both for amylin and calcitonin. The Emax model was defined as aversion=E0+Emax×(ENG^h/(ENG^h+ED50^h)), where E0 is the baseline aversion, Emax is the maximum induced aversion, ENG is the receptor engagement, and h is the slope (Hill) parameter. Parameter estimation was performed according to a maximum likelihood approach with an additive error model, incorporating data from all compounds simultaneously. Uncertainty of parameter estimates was determined by bootstrapping, sampling single measurements randomly with replacement within each experiment (N=500). Numeric analyses were performed in MATLAB (R2023b; The MathWorks, Natick, MA). The aversion data are given as mean and standard error (N=9-11 per group). In this experiment, the LAA/SARA1 was that of SEQ ID NO: 11, SARA2 was eloralintide, DACRA1 was cagrilintide, and DACRA2 was petrelintide."}, "AMY3R/CTR [2]": {"test_system": "AMY3R/CTR", "assay": "Relative potency ratio, cAMP accumulation assays with 0.1% BSA, human receptors", "format": "cell-based", "conditions": "0.1% bovine serum albumin, n ≥ 5; potencies relative to pramlintide 100%"}, "[3]": {"target": "rat amylin receptor (calcitonin receptor plus RAMP3) (rat) (UniProt P32214)", "sequence (P32214 25-516, chain 1 of 2)": "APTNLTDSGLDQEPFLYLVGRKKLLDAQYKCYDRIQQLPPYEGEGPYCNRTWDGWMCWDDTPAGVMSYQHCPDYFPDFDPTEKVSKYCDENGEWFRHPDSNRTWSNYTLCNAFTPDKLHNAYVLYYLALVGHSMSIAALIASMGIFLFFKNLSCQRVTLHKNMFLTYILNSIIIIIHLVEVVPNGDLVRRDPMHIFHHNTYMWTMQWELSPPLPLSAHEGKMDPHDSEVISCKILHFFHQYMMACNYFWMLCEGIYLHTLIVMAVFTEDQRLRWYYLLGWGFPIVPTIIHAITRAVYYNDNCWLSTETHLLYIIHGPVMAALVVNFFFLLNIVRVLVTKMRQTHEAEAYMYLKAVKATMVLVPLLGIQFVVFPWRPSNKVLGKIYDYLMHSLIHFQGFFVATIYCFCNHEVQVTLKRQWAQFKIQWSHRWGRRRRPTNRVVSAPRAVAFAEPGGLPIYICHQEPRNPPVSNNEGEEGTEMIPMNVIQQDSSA", "sequence (Q9JJ73 23-147, chain 2 of 2, further chain)": "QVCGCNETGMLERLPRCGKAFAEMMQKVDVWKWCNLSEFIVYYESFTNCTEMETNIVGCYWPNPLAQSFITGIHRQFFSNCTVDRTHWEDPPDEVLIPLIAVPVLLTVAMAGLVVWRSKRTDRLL", "assay": "cell-based or functional assay"}, "[4]": {"target": "human amylin receptor 3 (hAMY3R; complex of hCTR and hRAMP3) (human)", "sequence (chain, as listed by the source limits assumed, chain 1 of 2)": "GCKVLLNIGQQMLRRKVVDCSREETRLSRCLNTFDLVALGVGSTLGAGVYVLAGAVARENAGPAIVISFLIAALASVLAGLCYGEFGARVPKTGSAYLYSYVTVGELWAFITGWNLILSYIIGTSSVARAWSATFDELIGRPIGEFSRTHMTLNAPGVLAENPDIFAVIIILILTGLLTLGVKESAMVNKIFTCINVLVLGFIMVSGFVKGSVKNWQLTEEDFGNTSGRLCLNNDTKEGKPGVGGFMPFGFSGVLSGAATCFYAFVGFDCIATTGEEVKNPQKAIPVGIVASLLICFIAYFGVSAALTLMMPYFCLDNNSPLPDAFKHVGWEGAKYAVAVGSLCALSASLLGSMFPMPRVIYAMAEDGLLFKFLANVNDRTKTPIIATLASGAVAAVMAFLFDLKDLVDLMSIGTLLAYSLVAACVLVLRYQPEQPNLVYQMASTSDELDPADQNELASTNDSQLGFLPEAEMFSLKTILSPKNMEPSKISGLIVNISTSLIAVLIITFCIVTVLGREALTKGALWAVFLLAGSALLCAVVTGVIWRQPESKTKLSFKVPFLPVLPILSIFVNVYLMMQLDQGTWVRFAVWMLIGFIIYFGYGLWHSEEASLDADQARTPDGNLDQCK", "sequence (chain, as listed by the source limits assumed, chain 2 of 2)": "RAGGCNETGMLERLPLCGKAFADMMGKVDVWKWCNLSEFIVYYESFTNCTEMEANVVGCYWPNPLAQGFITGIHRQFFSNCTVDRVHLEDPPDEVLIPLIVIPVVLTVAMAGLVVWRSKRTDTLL", "assay": "cell-based or functional assay"}, "DIO rats": {"test_system": "DIO rats", "assay": "Example 7: 28-day LAA and GLP/GIP dual agonist study", "format": "in vivo, rat", "conditions": "for body weight change: day 28", "experimental": "Study Design: Male rats were fed a high-fat diet (45% kcal fat-D12451; Research Diets) or chow control matched diet (10% kcal fat-D12450K; […] Control rats were dosed SC with Vehicle. Body weight was monitored daily through-out study and body composition measured by EchoMRI at baseline (week-1) and end of study (week 4). […]"}, "Wistar Han rats": {"test_system": "Wistar Han rats", "assay": "Example 4: 3-month subcutaneous study, body weight", "format": "in vivo, rat", "conditions": "for Body Weight Comparison, Day 92 vs. Control Group 1 Day 92 / Body Weight Gain (Day 92 vs Day −1) / Mean Body Weight at Day 92: dose levels 0/5, Group 5", "experimental": "Study Design: Male (9-11 weeks of age) and female (10-11 weeks of age) Wistar Han rats were SC administered with Vehicle/Vehicle (group 1—for LAA of SEQ ID NO: 11 and GLP-1/GCG of SEQ ID NO: 35), LAA of SEQ ID NO: 11 and GLP-1/GCG of SEQ ID NO: 35 (group 2—500 and 5 μg/kg respectively), LAA of SEQ ID NO: 11 and GLP-1/GCG of SEQ ID NO: 35 (group 3—2000 and 5 μg/kg respectively), SEQ ID NO: 11 and Vehicle for SEQ ID NO: 35 (group 4—2000 μg/kg and 0 μg/kg respectively), or Vehicle for SEQ ID NO: 11 and SEQ ID NO: 35 (group 5—0 and 5 μg/kg respectively) daily for 91 days. Dosing for LAA of SEQ ID NO: 11 was dose escalated with group 2 receiving 250 μg/kg from day 1-5 and 500 μg/kg for duration of study, and groups 3 and 4 receiving 250 μg/kg SEQ ID NO: 11 from day 1-5, 500 μg/kg SEQ ID NO: 11 from days 7-13 and 2000 μg/kg for duration of study. There was a n=10/group per gender."}, "[5]": {"conditions": "GLP/GIP mono-treatment 2 nmol/kg"}, "[6]": {"conditions": "GLP/GIP mono-treatment 30 nmol/kg"}},
  "note": "Numbered stars: 1 amine (or outer) side, 2 acyl side, 3 side chain; on linkers, the order of the positions; unused ones are H or OH. Square brackets hold non-standard residues; d marks the D form. Side chains are listed from the residue outwards. Ends that are not written are not given here. * marks the point of attachment. C18 diacid = O=C(O)CCCCCCCCCCCCCCCCC(=O)*; γGlu = O=C(O)[C@H](CCC(=O)[*:2])N[*:1]; αMeF = C[C@](N)(Cc1ccccc1)C(=O)O; AEEA = NCCOCCOCC(=O)O; Aib = CC(C)(N)C(=O)O",
  "data": [
    {"compound": "eloralintide [SARA 2]", "values": [
      {"measurement": "Relative potency ratio (AMY3R/CTR), Rat", "setting": "AMY3R/CTR [1]", "value": 0.14},
      {"measurement": "Relative potency ratio (AMY3R/CTR), Human", "setting": "AMY3R/CTR [2]", "value": 0.24}
    ]},
    {"compound": "SARA 2 (eloralintide) (peptide)", "values": [
      {"measurement": "Relative potency ratio (AMY3R/CTR), Rat; cAMP accumulation assay, 0.1% BSA", "setting": "[3]", "value": 0.14},
      {"measurement": "Relative potency ratio (AMY3R/CTR), Human; cAMP accumulation assay, 0.1% BSA", "setting": "[4]", "value": 0.24}
    ]},
    {"compound": "tirzepatide [GLP/GIP]", "values": [
      {"measurement": "change in lean mass (g)", "setting": "DIO rats; [5]", "value": "no effect at 2 nmol/kg"},
      {"measurement": "change in lean mass (g)", "setting": "DIO rats; [6]", "value": "significant reduction vs. vehicle"},
      {"measurement": "body weight change", "setting": "DIO rats; [5]", "value": "−1.7", "unit": "%"},
      {"measurement": "body weight change", "setting": "DIO rats; [6]", "value": "−8.9", "unit": "%"},
      {"measurement": "body weight change", "setting": "DIO rats; mono-treatment 10 nmol/kg SC QD", "value": "−8.1", "unit": "%"},
      {"measurement": "change in fat mass (g)", "setting": "DIO rats; end of study (week 4), EchoMRI, FIG. 6C", "value": "dose-dependent decrease in fat mass"},
      {"measurement": "change in lean mass (g)", "setting": "DIO rats; end of study, EchoMRI, mono-treatment, FIG. 6D", "value": "dose-dependent decrease of lean mass"}
    ]},
    {"compound": "DACRA 1 (cagrilintide) (peptide)", "values": [
      {"measurement": "Relative potency ratio (AMY3R/CTR), Rat; cAMP accumulation assay, 0.1% BSA", "setting": "[3]", "value": 0.01},
      {"measurement": "Relative potency ratio (AMY3R/CTR), Human; cAMP accumulation assay, 0.1% BSA", "setting": "[4]", "value": 0.08}
    ]},
    {"compound": "CC[C@H](C)[C@H](NC(=O)[C@@H]1CCCN1C(=O)CNC(=O)[C@H](Cc1ccccc1)NC(=O)[C@H](CC(N)=O)NC(=O)[C@H](CC(N)=O)NC(=O)[C@H](CO)NC(=O)[C@H](CO)NC(=O)[C@H](Cc1c[nH]cn1)NC(=O)[C@@H](NC(=O)[C@H](CC(C)C)NC(=O)[C@H](Cc1ccccc1)NC(=O)[C@H](CC(N)=O)NC(=O)[C@H](C)NC(=O)[C@H](CC(C)C)NC(=O)[C@H](CCCNC(=N)N)NC(=O)[C@H](CCC(N)=O)NC(=O)[C@@H](NC(=O)[C@H](C)NC(=O)[C@@H]1CSSC[C@H](NC(=O)[C@@H](N)CCCCN)C(=O)N[C@@H](CC(N)=O)C(=O)N[C@@H]([C@@H](C)O)C(=O)N[C@@H](C)C(=O)N[C@@H]([C@@H](C)O)C(=O)N1)[C@@H](C)O)C(C)C)C(=O)N[C@@H](CC(C)C)C(=O)N1CCC[C@H]1C(=O)N1CCC[C@H]1C(=O)N[C@H](C(=O)N[C@@H](CC(N)=O)C(=O)N[C@H](C(=O)NCC(=O)N[C@@H](CO)C(=O)N[C@@H](CC(N)=O)C(=O)N[C@H](C(=O)N[C@@H](Cc1ccc(O)cc1)C(N)=O)[C@@H](C)O)C(C)C)[C@@H](C)O", "note": "[Pramlintide]", "values": [
      {"measurement": "Relative potency ratio (AMY3R/CTR), Rat", "setting": "AMY3R/CTR [1]", "value": 1.0},
      {"measurement": "Relative potency ratio (AMY3R/CTR), Human", "setting": "AMY3R/CTR [2]", "value": 1.0}
    ]},
    {"compound": "hAmylin (from UniProt P10997 34-70) (peptide)", "values": [
      {"measurement": "Relative potency ratio (AMY3R/CTR), Rat; cAMP accumulation assay, 0.1% BSA", "setting": "[3]", "value": 0.9},
      {"measurement": "Relative potency ratio (AMY3R/CTR), Human; cAMP accumulation assay, 0.1% BSA", "setting": "[4]", "value": 1.8}
    ]},
    {"compound": "DACRA 2 (petrelintide) (peptide)", "values": [
      {"measurement": "Relative potency ratio (AMY3R/CTR), Rat; cAMP accumulation assay, 0.1% BSA", "setting": "[3]", "value": 0.03},
      {"measurement": "Relative potency ratio (AMY3R/CTR), Human; cAMP accumulation assay, 0.1% BSA", "setting": "[4]", "value": 0.05}
    ]},
    {"compound": "petrelintide [DACRA 2]", "values": [
      {"measurement": "Relative potency ratio (AMY3R/CTR), Rat", "setting": "AMY3R/CTR [1]", "value": 0.03},
      {"measurement": "Relative potency ratio (AMY3R/CTR), Human", "setting": "AMY3R/CTR [2]", "value": 0.05}
    ]},
    {"compound": "hAmylin: human amylin, non-lipidated (KCNTATCATQRLANFLVHSSNNFGAILSSTNVGSNTY; not fully specified (C-terminus, bridges); cysteine pairing not given here)", "values": [
      {"measurement": "Relative potency ratio (AMY3R/CTR), Rat", "setting": "AMY3R/CTR [1]", "value": 0.9},
      {"measurement": "Relative potency ratio (AMY3R/CTR), Human", "setting": "AMY3R/CTR [2]", "value": 1.8}
    ]},
    {"compound": "H(Aib)QGTFTSDVSK(αMePhe)LDTK(O2Oc-O2Oc-γE-C18diacid)RARDFVQWLLE(Aib)G-acid (H[Aib]QGTFTSDVSK[αMeF]LDTK([AEEA-AEEA-γGlu-C18 diacid])RARDFVQWLLE[Aib]G-OH; N-terminus assumed; SMILES CC(C)C[C@H](NC(=O)[C@H](Cc1c[nH]c2ccccc12)NC(=O)[C@H](CCC(N)=O)NC(=O)[C@@H](NC(=O)[C@H](Cc1ccccc1)NC(=O)[C@H](CC(=O)O)NC(=O)[C@H](CCCNC(=N)N)NC(=O)[C@H](C)NC(=O)[C@H](CCCNC(=N)N)NC(=O)[C@H](CCCCNC(=O)COCCOCCNC(=O)COCCOCCNC(=O)CC[C@H](NC(=O)CCCCCCCCCCCCCCCCC(=O)O)C(=O)O)NC(=O)[C@@H](NC(=O)[C@H](CC(=O)O)NC(=O)[C@H](CC(C)C)NC(=O)[C@](C)(Cc1ccccc1)NC(=O)[C@H](CCCCN)NC(=O)[C@H](CO)NC(=O)[C@@H](NC(=O)[C@H](CC(=O)O)NC(=O)[C@H](CO)NC(=O)[C@@H](NC(=O)[C@H](Cc1ccccc1)NC(=O)[C@@H](NC(=O)CNC(=O)[C@H](CCC(N)=O)NC(=O)C(C)(C)NC(=O)[C@@H](N)Cc1c[nH]cn1)[C@@H](C)O)[C@@H](C)O)C(C)C)[C@@H](C)O)C(C)C)C(=O)N[C@@H](CC(C)C)C(=O)N[C@@H](CCC(=O)O)C(=O)NC(C)(C)C(=O)NCC(=O)O) [GLP-1/GCG of SEQ ID NO: 35]", "values": [
      {"measurement": "Body weight at study day 92 vs Vehicle", "setting": "Wistar Han rats; both male and female, groups 2-5", "value": "significantly lower"},
      {"measurement": "Body Weight Comparison, Day 92 vs. Control Group 1 Day 92", "setting": "Wistar Han rats; female", "value": 90, "unit": "%"},
      {"measurement": "Body Weight Gain (Day 92 vs Day −1)", "setting": "Wistar Han rats; female", "value": 112, "unit": "%"},
      {"measurement": "Mean Body Weight at Day 92", "setting": "Wistar Han rats; female", "value": 225.4, "unit": "grams"},
      {"measurement": "Body Weight Comparison, Day 92 vs. Control Group 1 Day 92", "setting": "Wistar Han rats; male", "value": 80, "unit": "%"},
      {"measurement": "Body Weight Gain (Day 92 vs Day −1)", "setting": "Wistar Han rats; male", "value": 119, "unit": "%"},
      {"measurement": "Mean Body Weight at Day 92", "setting": "Wistar Han rats; male", "value": 325.5, "unit": "grams"}
    ]}
  ]
}
